Measured values taken from publication PMC6132687, “Stem cells are the most sensitive screening tool to identify toxicity of GATA4-targeted novel small-molecule compounds” (Archives of Toxicology, 2018).

Legend:
[1] = tested on: stem cell and progenitor cell viability; test: Toxicity classification from MTT screening across cell types; conditions: based on effects on stem cell and progenitor cell viability
Protocol: (§1) The cells were exposed to the test compounds for 24 h and cytotoxicity was quantified with MTT and LDH assays as described previously (Talman et al. [2011]). For the determination of cell membrane integrity, 50 µl of medium from each well was transferred onto a new 96-well plate followed by addition of 50 µl of substrate solution containing 1.3 mM β-nicotinamide adenine dinucleotide, 660 µM iodonitrotetrazolium, 54 mM L(+)-lactic acid, 280 µM phenazine methosulphate and 0.2 M Tris–HCl (pH 8.0). After a 30-min incubation, the reaction was stopped by adding 50 µl of 1 M acetic acid to each well and absorbance was measured at 490 nm using Victor2 plate reader (PerkinElmer, Turku, Finland). Spontaneous LDH release was measured from untreated cells, maximal LDH release from cells lysed with 0.9% Triton X-100 and background absorbance was measured from wells without cells. After background extraction, cytotoxicity was calculated as follows: cytotoxicity (%) = [(sample − spontaneous LDH release)/(maximal LDH release − spontaneous LDH release)] × 100. For quantification of metabolic activity, 3-(4,5-dimethylthiazol-2-yl)-2,5-diphenyltetrazolium bromide (MTT) was added to the cells at a final concentration of 0.5 mg/ml followed by 2 h incubation in cell culture conditions. The medium was then aspirated and formazan crystals were solubilized in DMSO. Absorbance was measured at 550 nm and absorbance at 650 nm was subtracted as background.
When comparing the effects of different compounds within each individual cell type, the compounds can be grouped into two main classes: toxic (3i-1000, 3i-1120, 3i-1148 and 3i-1229) and non-toxic (3i-1047, 3i-1051, 3i-1165, and 3i-1228) compounds. Based on the hiPSC toxicity data, 3i-1148 can be considered as the most toxic compound with an IC50 of 0.30 µM (Fig. 5b).

[2] = tested on: mESC derivatives from day 5 embryoid bodies (D5EBs); test: MTT assay in D5EBs; assay type: cell-based, mouse; conditions: 24 h
Protocol: as §1
Mouse embryonic stem cells (mESCs), embryoid bodies (EBs), and primary mouse embryonic fibroblasts (MEFs) were used for toxicity experiments. E14 mESCs were cultured in feeder-free conditions on plates coated with 0.1% gelatin in DMEM with 15% FBS, GlutaMax, MEM non-essential amino acids, 2-mercaptoethanol, and leukemia inhibitory factor (LIF). For toxicity assays, the cells were dissociated with TrypLe and plated at 5,000 cells/well in gelatin-coated 96-well plates 24 hours prior to compound exposures. To induce differentiation of mESCs, cells were plated on day 0 in 20 µl hanging drops at 25,000 cells/ml in inverted V-bottom plates in DMEM with 20% FBS and with all above supplements except LIF. On day 2 medium was added to EBs, and the EBs were dissociated with TrypLe and plated at 5,000 cells/well in gelatin-coated 96-well plates on day 5 and exposed to test compounds 24 later. Primary MEFs were cultured on 0.1% gelatin-coated plates in DMEM with 10% […]
(§2) 1640 without glucose with B-27 supplement in order to purify cardiomyocytes. From day 15 onwards the cells were maintained in RPMI 1640 supplemented with B-27 (RB+ins). Beating hiPSC-CMs were dissociated between days 15 and 22 by incubating them in cell dissociation solution containing 40% enzyme-free cell dissociation buffer, 40% RPMI 1640 and 20% trypsin-EDTA (final trypsin concentration 0.01%) for 7–8 min, whereafter the cells were collected and trypsin was inactivated in RB+ins supplemented with 10% FBS. After centrifugation the cells were suspended in RB+ins with 10% FBS containing 10 µM ROCK inhibitor and seeded at 15,000 cells/well (cytotoxicity assays) or 20,000 cells/well (high content analysis) in gelatin-coated 96-well plates. The cells were let to attach for 2 days at 37 °C in standard conditions, whereafter the compounds were added in RB+ins. In general, the differentiation yielded an almost pure (>95%) cardiomyocyte culture.
(§3) Syntheses and characterization of compounds
Materials and general procedures. […]

mESCs = test: MTT assay in mESCs; assay type: cell-based, mouse; conditions: 24 h; for reduction in cell viability: 30 µM
Protocol: as §1
Mouse embryonic stem cells (mESCs), embryoid bodies (EBs), and primary mouse embryonic fibroblasts (MEFs) were used for toxicity experiments. E14 mESCs were cultured in feeder-free conditions on plates coated with 0.1% gelatin in DMEM with 15% FBS, GlutaMax, MEM non-essential amino acids, 2-mercaptoethanol, and leukemia inhibitory factor (LIF). For toxicity assays, the cells were dissociated with TrypLe and plated at 5,000 cells/well in gelatin-coated 96-well plates 24 hours prior to compound exposures. […]
as §2, §3
Materials and general procedures. All reagents were acquired from Sigma-Aldrich (Schnelldorf, Germany) and Enamine (Kiev, Ukraine), and were used without further purification. All reactions in anhydrous solvents were conducted in oven-dried glassware under anhydrous argon. Thin-layer chromatography (TLC) was performed using Silica Gel 60 F254 (Merck) and Silica Gel 60 NH2 F254s aluminium sheets (Merck), visualized by UV illumination and stained with ninhydrin in EtOH (1.5% w/v). […] The 1H and 13C NMR spectra were recorded on a Varian

SMILES | toxicity class (toxic / non-toxic) [1] | reduction in metabolic activity ([2]; at ≥ 10 µM) | reduction in cell viability (mESCs) | reduction in viability ([2]; 30 µM) | sensitivity of cell type to compound (viability) [2] | sensitivity of cell type to compound (viability) (mESCs)
CCN(CC)c1ccc(NC(=O)c2c(-c3ccccc3)noc2C)cc1 [3i-1000] | toxic | moderate, but not statistically significant | 56% | – | – | –
CCN(CC)c1ccc(NC(=O)c2c(C)noc2-c2cc(C)on2)cc1 [3i-1047] | non-toxic | – | 38–45% | 38–45% | – | –
CCC(=O)N(Cc1ccc(N(CC)CC)cc1)c1c(-c2ccccc2)noc1C [3i-1120] | toxic | – | – | – | sensitive | sensitive
CCN(CC)c1ccc(NC(=O)c2cc(C)oc2-c2ccccc2)cc1 [3i-1148] | toxic | – | – | – | sensitive | sensitive
COc1ccc(-c2cc(N)nn2C(=O)c2c(-c3ccccc3)noc2C)cc1 [3i-1229] | toxic | – | – | – | sensitive | sensitive
